Consider ten compounds from publication PMC12530843, “Identification of a New Interesting BAG3 Modulator Able to Disrupt Cancer‐Related Pathways” (Chemmedchem, 2025).

SMILES strings stand for the structures. Entries after “also recorded” stand apart in the source; their conditions may differ.

The term Kd denotes the concentration at which binding is half-saturated. In general, IC50 refers to the concentration that inhibits the measured activity by half.

Experiment [1] deals with T1, BAG3-BD (Homo sapiens, UniProt O95817).
T1 construct: the BAG3 domain (BAG3‐BD) was sourced from ARETA International S.r.l; (Gerenzano, Italy); purchased ARETA International S.r.l
T1 sequence (O95817 421-498 limits assumed): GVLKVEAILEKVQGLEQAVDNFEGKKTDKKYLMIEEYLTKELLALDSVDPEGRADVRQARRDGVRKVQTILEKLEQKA
Kind of experiment: SPR binding on BAG3 BAG domain. Particulars: Biacore T200, 25 °C, 1:1 model; for Kd: read-out: BAG3–BD KD ± SD. As for the experimental part:
(§1) Recombinant human BAG3 protein (Bcl2‐associated athanogene 3) was obtained from Novus Biologicals (Littleton, Colorado), while the BAG3 domain (BAG3‐BD) was sourced from ARETA International S.r.l. (Gerenzano, Italy). We used (Z)‐ethyl 2‐(5‐(3,4‐dihydroxybenzylidene)‐2,4‐dioxothiazolidin‐3‐yl)acetate (LK4), a BAG3 inhibitor previously identified by our group.^[ [13] ^] SPR spectroscopy was performed using a Biacore T200 optical biosensor with CM5 sensor chips (Cytiva, Marlborough, USA) to assess the affinity of synthesized molecules for BAG3 and BAG‐BD. BAG3 and BAG‐BD were immobilized on CM5 sensor chip using standard amine‐coupling protocol.^[ [15] ^, [42] ^, [43] ^] BAG3 protein (0.067 μg μL^−1 in 10 mM CH3COONa, pH 4.5) was immobilized at a flow rate of 10 μL min^−1, achieving a surface density of 14 kRU, while BAG3‐BD (0.38 μg μL^−1 in 10 mM CH3COONa, pH 4.5) reached a density of 4 kRU. For the experiments, BAG3 and BAG‐BD surfaces, as well as an unmodified reference surface, were prepared for simultaneous analysis. Compounds 1–10 and LK4 were initially dissolved to 10 mM in 100% DMSO, then diluted 1:20 (v/v) in PBS‐P buffer (0.2 M phosphate buffer, 27 mM KCl, 1.37 M NaCl, 0.5% surfactant P20) resulting in a final DMSO concentration of 5.0%. The compounds were injected in a concentration series (1:2 dilution, 10 different concentrations) ranging from 0 to 100 μM, using 96‐well plates. SPR experiments were conducted at 25 °C with a flow rate of 20 μL min^−1, featuring a 90 s association phase followed by a 400 s dissociation phase. Changes in mass, recorded as resonance units (RU), were used to quantify binding responses, while K D values were determined using Biaevaluation software by globally fitting the double‐referenced association and dissociation data to a 1:1 interaction model. (See Figure S43–S56, Supporting Information).
Background: Surface plasmon resonance follows binding to a sensor surface in real time, without labels.

Experiment [2] addresses T2, BAG3 full length (Homo sapiens, UniProt O95817).
T2 construct: purchased Novus Biologicals (Littleton, Colorado)
Nature of the experiment: SPR binding on full-length BAG3. The following applies: Biacore T200, 25 °C, 1:1 model; for Kd: read-out: BAG3 FULL KD ± SD. As for the experimental part:
as §1

The test system of experiment [3] is HeLa cells. Set-up: method as in PMID 29926854. Particulars: reported value; read-out: IC50 in HeLa cell line; cited from earlier work.

T2 sequence (O95817 whole entry): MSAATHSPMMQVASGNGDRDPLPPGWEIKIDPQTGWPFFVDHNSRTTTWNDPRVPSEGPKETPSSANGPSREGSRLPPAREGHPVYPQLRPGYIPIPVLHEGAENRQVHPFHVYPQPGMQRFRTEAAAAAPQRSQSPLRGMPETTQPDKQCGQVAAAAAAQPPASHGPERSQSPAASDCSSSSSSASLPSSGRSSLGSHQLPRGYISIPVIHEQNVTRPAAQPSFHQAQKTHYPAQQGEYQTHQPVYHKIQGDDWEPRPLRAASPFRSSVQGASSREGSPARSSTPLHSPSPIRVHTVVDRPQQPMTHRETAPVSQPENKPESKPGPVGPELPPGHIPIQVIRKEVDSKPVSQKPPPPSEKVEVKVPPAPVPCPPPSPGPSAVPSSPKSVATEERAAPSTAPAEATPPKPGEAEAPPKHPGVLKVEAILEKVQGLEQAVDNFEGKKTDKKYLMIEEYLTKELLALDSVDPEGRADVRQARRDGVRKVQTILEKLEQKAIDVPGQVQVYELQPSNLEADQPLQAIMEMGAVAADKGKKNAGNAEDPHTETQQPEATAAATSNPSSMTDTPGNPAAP

On to `O=C(OCc1cn(COCc2ccccc2)nn1)c1cccc([N+](=O)[O-])c1` [Compound 1, (1‐((Benzyloxy)methyl)‐1H‐1,2,3‐triazol‐4‐yl)methyl 3‐nitrobenzoate], for which, in experiment [1], the “BAG3–BD KD ± SD” value is “low micromolar range” and the Kd was found to be 1.87 ± 0.03 µM. Moreover, in experiment [2], the “BAG3 FULL KD ± SD” value is “low micromolar range” and the Kd is 3.31 ± 0.18 µM.

As for `O=C(OCc1cn(Cc2cccc3ccccc23)nn1)c1cccc([N+](=O)[O-])c1` [Compound 3, (1‐(Naphthalen‐1‐ylmethyl)‐1H‐1,2,3‐triazol‐4‐yl)methyl 3‐nitrobenzoate], the “BAG3–BD KD ± SD” value in experiment [1] was “not able to bind”. Also, the “BAG3 FULL KD ± SD” value in experiment [2] is “not able to bind; also recorded: No binding”.

As to `Cc1cc(C)n(-c2cccc(Cn3cc(COC(=O)c4cccc([N+](=O)[O-])c4)nn3)c2)n1` [Compound 4, (1‐(3‐(3,5‐Dimethyl‐1H‐pyrazol‐1‐yl)benzyl)‐1H‐1,2,3‐triazol‐4‐yl)methyl 3‐nitrobenzoate], the “BAG3–BD KD ± SD” value in experiment [1] is listed as “not able to bind”. Moreover, the “BAG3 FULL KD ± SD” value in experiment [2] was “not able to bind; also recorded: No binding”.

Take `O=C(OCc1cn(Cc2ccc3ccccc3n2)nn1)c1cccc([N+](=O)[O-])c1` [Compound 5, (1‐(Quinolin‐2‐ylmethyl)‐1H‐1,2,3‐triazol‐4‐yl)methyl 3‐nitrobenzoate]: the Kd came out at 8.27 ± 0.98 µM in experiment [1] and 12.5 ± 2.26 µM in experiment [2].

Turning to `O=C(OCc1cn(Cc2ccc3ccccc3n2)nn1)c1ccnc(Cl)c1` [Compound 6, (1‐(Quinolin‐2‐ylmethyl)‐1H‐1,2,3‐triazol‐4‐yl)methyl 2‐chloroisonicotinate], the Kd in experiment [1] is 2.78 ± 0.88 µM; in experiment [2] it was 24 ± 4.6 µM.

On to `Nc1ccc(C(=O)OCc2cn(Cc3ccc4ccccc4n3)nn2)cc1Br` [Compound 7, (1‐(Quinolin‐2‐ylmethyl)‐1H‐1,2,3‐triazol‐4‐yl)methyl 4‐amino‐3‐bromobenzoate], for which the results for the Kd in experiment [1] and in experiment [2] were 6.32 ± 0.12 µM and 11.4 ± 2.43 µM, respectively.

Turning to `O=C(OCc1cn(Cc2ccc3ccccc3n2)nn1)c1ccccc1I` [Compound 8, (1‐(Quinolin‐2‐ylmethyl)‐1H‐1,2,3‐triazol‐4‐yl)methyl 2‐iodobenzoate], the Kd in experiment [1] amounted to 2.43 ± 0.09 µM; in experiment [2], 12.6 ± 1.2 µM.

In the case of `Cc1cc(C)n(-c2cccc(Cn3cc(COC(=O)c4ccc(N)c(Br)c4)nn3)c2)n1` [Compound 9, (1‐(3‐(3,5‐Dimethyl‐1H‐pyrazol‐1‐yl)benzyl)‐1H‐1,2,3‐triazol‐4‐yl)methyl 4‐amino‐3‐bromobenzoate], the “BAG3 FULL KD ± SD” value in experiment [2] is given as “did not show the ability to bind; also recorded: No binding”.

As to `Nc1ccc(C(=O)OCc2cn(Cc3cccc4ccccc34)nn2)cc1Br` [Compound 10, (1‐(Naphthalen‐1‐ylmethyl)‐1H‐1,2,3‐triazol‐4‐yl)methyl 4‐amino‐3‐bromobenzoate], the “BAG3 FULL KD ± SD” value in experiment [2] is listed as “did not show a satisfactory binding; also recorded: No binding”.

Take `CCOC(=O)CN1C(=O)S/C(=C\c2ccc(O)c(O)c2)C1=O` [LK4, (Z)‐ethyl 2‐(5‐(3,4‐dihydroxybenzylidene)‐2,4‐dioxothiazolidin‐3‐yl)acetate]: the half-inhibitory concentration (IC50) in experiment [3] is over 50 µM.
